From patent publication US20260325464A1, “COMPOSITIONS FOR MODULATING THE EXPRESSION OF AQUAPORINS IN NEURODEGENERATIVE DISORDERS” (priority 2023, published 2026)
Marks after values point to notes of the source that are not given here.

What was measured:
Format in all cases: in vivo, rat
Parkinson's disease [1] = assay: Open field test in rats with reserpine-induced Parkinson's disease; details: 25 mg/kg, p.o. + Reserpine (4 mg/kg, s.c.); open field; Mean ± SEM, n = 6
Source text: (§1) The induction of Parkinson's disease and measurement of other parameters were done as per the reported protocol (Santos et al., Cognitive, motor and tyrosine hydroxylase temporal impairment in a model of parkinsonism induced by reserpine. Behav Brain Res. 2013; 253:68-77 and Shishehbore et al. A novel kinetic spectrophotometric method for the determination of dopamine in biological and pharmaceutical samples. J Chem. 2013; 2013:1-6). Induction of Parkinson's disease was done by administering Resperine, which inhibits the monoamine vesicular transporters, thus decreasing the levels of monoamine neurotransmitters in the brain. Following pretreatment for 14 days with Gingerenone A, the rat groups received subcutaneous injections of reserpine (4 mg/kg) for the final five days of the treatment regimen. Resperine (5 mg) was dissolved in 1 ml of 1% acetic acid and then diluted tenfold with distilled water to achieve a final concentration of 500 μg/ml. The normal control group received saline with 1% acetic acid […], administered from day 10 to day 14. Thirty minutes following the administration of reserpine on the 14th day, behavioural assessments were conducted using the Open Field test, Y Maze, and Catalepsy tests to evaluate changes. Rats administered with Carbidopa, a known drug for the management of Parkinson's disease was also used for comparison. Upon completion of the study, brains were harvested for biochemical analyses and histopathological studies. The experimental group is depicted in table 10.
Open filed test—The test was conducted as per protocol described by Saleem et al., Pharmacological Potential of the Standardized Methanolic Extract of Prunus armeniaca L. in the Haloperidol-Induced Parkinsonism Rat Model. Evid Based Complement Alternat Med. 2022:29; 3697522. doi: 10.1155/2022/3697522. This test was conducted to assess the locomotor and exploratory behaviors of the experimental rats. A square-shaped wooden box measuring 100 cm in width, 100 cm in […], and 45 cm in height was constructed using plywood material, painted white, with a black-lined floor divided into 25 blocks. The rats were placed in the center of the field for a duration of 5 minutes and allowed to explore the box freely. The number of squares crossed, both centrally and horizontally, along with the total number of crossings, instances of defecation, freezing behavior, and postures were recorded during this period. Normal animals readily and quickly acclimate to the chamber and try to explore the center area of the squares.

Parkinson's disease [2] = assay: Y-maze test in rats with reserpine-induced Parkinson's disease; details: 25 mg/kg, p.o. + Reserpine (4 mg/kg, s.c.); Y maze; Mean ± SEM, n = 6
Source text: as §1
Y-maze test—In the Y-maze test, spontaneous alterations serve as an indicator of working short-term memory.
The maze consisted of a triangular central area with three equilateral arms labeled A, B, and C, each measuring 35 cm in length, 25 cm in height, and 10 cm in width. During the test, each rat was placed in the central area, facing one of the arms. An entry was scored when all four paws of the rat entered an arm. Spontaneous alterations in behavior were defined as consecutive entries into different arms (e.g., ABC, BCA, or CAB, but not CAC). The maximum number of spontaneous alterations ([…]) and the percentage of spontaneous alterations (actual number of alterations divided by the maximum alterations, multiplied by 100) were calculated for each rat (Kraeuter et al., The Y-Maze for Assessment of Spatial Working and Reference Memory in Mice. Methods Mol Biol. 2019; 1916:105-111).

Parkinson's disease [3] = assay: Catalepsy test in rats with reserpine-induced Parkinson's disease; parameters: catalepsy score at 30 min / catalepsy score at 60 min / catalepsy score at 120 min: unit not given here; details: 25 mg/kg, p.o. + Reserpine (4 mg/kg, s.c.), Mean ± SEM, n = 6
Source text: as §1
NeuroMol Med. 202022(2):314-330. Catalepsy in rats' manifests as an unresponsiveness to external stimuli accompanied by muscle rigidity. During the catalepsy test, rats were positioned on a wooden bar elevated 3-9 cm above the surface, with their forelimbs resting on it after administration of reserpine. The time taken for the rats to correct their posture was recorded as an indicator of catalepsy. Catalepsy ceased either when the rats climbed up the bar or when their forelimbs touched the floor. Observations were made at 30, 60, and 120 minutes after administration. All assessments were conducted in a quiet environment at a temperature of 23-25 degrees Celsius, with a maximum observation time of 5 minutes per trial.

Alzheimer's disease [4] = assay: Elevated plus maze (EPM) test in rats with AlCl3-induced Alzheimer's disease; details: 5 mg/kg, p.o. + AlCl3 (100 mg/kg, i.p.), Mean ± SEM, n = 6
Experimental: Elevated plus maze (EPM)—Elevated plus maze (EPM)—This test was performed as per reported protocol (Bhuvanendran et al., Amelioration of cognitive deficit by Embelin in a Scopolamine-induced Alzheimer's disease-like condition in a rat model. Front Pharmacol. 2018:9(6):1-12 and Biradar et al., (2020) Experimental validation and network pharmacology evaluation to decipher the mechanism of action of Erythrina variegata L. bark against scopolamine-induced memory impairment in rats. Adv Tradit Med. 2020:26:1-4). EPM contains 2 closed and 2 open arms (four arms; equal dimensions of 50×10 cm). These 4 arms connect at central with a 10×10 cm square gap as an initial point. The transfer latency (TL) was recorded via stopwatch by keeping rats independently toward one side of the open arm. The EPM TL cut-off was set to 60 s throughout the study. […] Index of memory improvement is measured as a drop of transfer Latency (TL) by test drug.
The elevated plus maze is a test that is widely used to assess the anti-anxiety effects of test substances. As the test measures open arm activity, an increase in open arm activity (duration and/or entries) reflects anti-anxiety behaviour (Walf et al., The use of the elevated plus maze as an assay of anxiety-related behavior in rodents, Nat Protoc. 2007; 2(2): 322-328). In the present study, inducing Alzheimer's in the animals increased their anxiety which was reduced by the administration on Gingerenone A (Table 3).

Alzheimer's disease [5] = assay: Morris water maze (MWM) test in rats with AlCl3-induced Alzheimer's disease; details: 5 mg/kg, p.o. + AlCl3 (100 mg/kg, i.p.); MWM at 17th day; Mean ± SEM, n = 6
Experimental: Morris water maze (MWM)—This test was performed as per protocol established by Ishola et al., Protective role of Spondiasmombin leaf and Cola acuminata seed extracts against scopolamine-induced cognitive dysfunction. Alexandria J Med. 2018; 54(1):27-39. MWM is a round water tank “diameter: 110 cm and height: 60 cm” consisting of a white surface and that is filled using opaque water (Temp. 26±2° C.) to a distance (depth) of 30 cm. The MWM tank circle is divided into 4 equal quadrants [North Quadrant 1, East Quadrant 2, West Quadrant 3, and South Quadrant 4]. Further, it consists of a 10 cm diameter platform in a constant position. Index of memory improvement is measured by the Escape Latency Time (ELT)—which is the time the animal takes to find the platform.
The MWM plays an important role in the testing of learning and memory in rodent models of Alzheimer's Disease. It is used to test hippocampal-dependent learning, including acquisition of spatial memory and long-term spatial memory (Bromley-Brits et al., Morris water maze test for learning and memory deficits in Alzheimer's disease model mice, J Vis Exp., 2011 Jul. 20:(53):2920). In this study, learning was impaired in the Alzheimer's group.

β-amyloid (1-42) = β-amyloid (1-42) level in plasma (ELISA), AlCl3 Alzheimer's model; details: 5 mg/kg, p.o. + AlCl3 (100 mg/kg, i.p.); plasma; Mean ± SEM, n = 6
Source text: (§2) The levels of Tau, β-amyloid (1-42) and Apolipoprotein E were estimated. using ELISA kit (Krishgen Biosystems, India). All the protein biomarkers of AD were elevated in the AD control group.

Apolipoprotein E = Apolipoprotein E level in plasma (ELISA), AlCl3 Alzheimer's model; details: 5 mg/kg, p.o. + AlCl3 (100 mg/kg, i.p.); plasma; Mean ± SEM, n = 6
Source text: as §2

Fibrinogen = assay: Inflammatory marker fibrinogen (ELISA), AlCl3 Alzheimer's model; details: 5 mg/kg, p.o. + AlCl3 (100 mg/kg, i.p.); Mean ± SEM, n = 6
Source text: (§3) The inflammatory markers Fibrinogen, IL-1β were estimated using ELISA kit (Krishgen Biosystems, India).

IL-1β = assay: Inflammatory marker IL-1β (ELISA), AlCl3 Alzheimer's model; details: 5 mg/kg, p.o. + AlCl3 (100 mg/kg, i.p.); n = 6
Source text: as §3

SMILES	Freezing (Parkinson's disease [1]) [s]	Number of central explorations (Parkinson's disease [1])	Number of squares crossed (Parkinson's disease [1])	No of arm entries (Parkinson's disease [2])	Spontaneous alterations (%) (Parkinson's disease [2])	catalepsy score at 30 min (Parkinson's disease [3]; 30 min)	catalepsy score at 60 min (Parkinson's disease [3]; 60 min)	catalepsy score at 120 min (Parkinson's disease [3]; 120 min)	EPM at 16th day Transfer Latency (Alzheimer's disease [4]; 16th day) [s]	EPM at 17th day Transfer Latency (Alzheimer's disease [4]; 17th day) [s]	Escape Latency Time (Alzheimer's disease [5]) [s]	β-amyloid (β-amyloid (1-42)) [pg/mL]	Apolipoprotein E (Apolipoprotein E) [ng/mL]	Fibrinogen (Fibrinogen) [ng/mL]	IL-1β (IL-1β)
C[C@@](Cc1ccc(O)c(O)c1)(NN)C(=O)O [Carbidopa, reference compound]	9.63 ± 0.60	20.25 ± 1.03	31.80 ± 3.18	12.58 ± 1.04	27.31 ± 1.56	1.52 ± 0.42	1.60 ± 0.70	1.45 ± 0.70	–	–	–	–	–	–	–
COc1cc2c(cc1OC)C(=O)C(CC1CCN(Cc3ccccc3)CC1)C2 (stereo not drawn) [Donepezil, reference compound]	–	–	–	–	–	–	–	–	18.57 ± 0.68	18.22 ± 0.92	26.96 ± 2.58	8.02 ± 0.043	6.96 ± 0.065	16.77 ± 0.053	62.16** pg/ml
